From publication PMC7084495, “Discovery of 1-Pyrimidinyl-2-Aryl-4,6-Dihydropyrrolo [3,4-d]Imidazole-5(1H)-Carboxamide as a Novel JNK Inhibitor” (International Journal of Molecular Sciences, 2020)

Molecular target: T1, JNK3 (h) (Homo sapiens, UniProt P53779)
T1 construct: purchased Reaction Biology Corp. (Kinase HotSpot service)
Test: JNK3 kinase inhibition, Reaction Biology Kinase HotSpot radiometric assay
Format: biochemical
Settings: enzymatic activity; ATP 10 μM
Description: (specific activity approx. 500 cpm/pmol, concentration as required).

T1 sequence (P53779 whole entry): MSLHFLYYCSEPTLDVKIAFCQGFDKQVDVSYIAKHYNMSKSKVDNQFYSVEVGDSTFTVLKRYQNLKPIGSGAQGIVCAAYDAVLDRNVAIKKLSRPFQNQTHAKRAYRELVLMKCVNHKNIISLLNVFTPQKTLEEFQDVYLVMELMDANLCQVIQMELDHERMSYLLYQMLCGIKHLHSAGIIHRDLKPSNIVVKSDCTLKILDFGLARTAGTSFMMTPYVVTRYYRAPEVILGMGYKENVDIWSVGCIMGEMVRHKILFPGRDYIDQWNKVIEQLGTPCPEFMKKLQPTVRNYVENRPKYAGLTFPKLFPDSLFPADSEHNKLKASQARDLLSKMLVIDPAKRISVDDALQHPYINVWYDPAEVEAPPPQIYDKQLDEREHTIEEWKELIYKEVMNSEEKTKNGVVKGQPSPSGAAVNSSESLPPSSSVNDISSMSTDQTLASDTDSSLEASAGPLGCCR

Row | SMILES | IC50 [µM]
1 | O=C(C1CC1)N1CCC[C@H](Nc2nccc(-n3c(-c4ccc(Cl)c(Cl)c4)nc4c3CN(C(=O)N3CCC(O)CC3)C4)n2)C1 [Compound 22a, (S)-(1-(2-((1-(Cyclopropanecarbonyl)piperidin-3-yl)amino)pyrimidin-4-yl)-2-(3,4-dichlorophenyl)-4,6-dihydropyrrolo[3,4-d]Imidazol-5(1H)-yl)(4-hydroxypiperidin-1-yl)methanone] | 0.0186
2 | NC(=O)N1Cc2nc(-c3ccc(Cl)c(Cl)c3)n(-c3ccnc(N[C@H]4CCCN(C(=O)C5CC5)C4)n3)c2C1 [Compound 17a, (S)-1-(2-((1-(Cyclopropanecarbonyl)Piperidin-3-yl)Amino)Pyrimidin-4-yl)-2-(3,4-Dichlorophenyl)-4,6-Dihydropyrrolo[3,4-d]Imidazole-5(1H)-Carboxamide] | 0.0104
3 | NC(=O)N1Cc2nc(-c3ccc4c(c3)OCO4)n(-c3ccnc(N[C@H]4CCCN(C(=O)C5CCC5)C4)n3)c2C1 [Compound 20c, (S)-2-(Benzo[d][1,3]Dioxol-5-yl)-1-(2-((1-(Cyclobutanecarbonyl)Piperidin-3-yl)Amino)Pyrimidin-4-yl)-4,6-Dihydropyrrolo[3,4-d]Imidazole-5(1H)-Carboxamide] | 0.225
